The text below walks through data of patent US12174189B2, “Diagnostic, prognostic, and monitoring methods for chronic lymphocytic leukemia” (INSTITUTE FOR MYELOMA & BONE CANCER RESEARCH, priority 2013, dated 2024).

Entries after “also recorded” stand apart in the source; their conditions may differ.

This experiment concerns LAGλ-1 tumor. The experiment in a line: LAGλ-1 human MM xenograft in SCID mice. The experiment is classed as in vivo, CB17 SCID mice. The conditions noted are these: melphalan 3 mg/kg twice weekly i.p., vs untreated mice. From the text:
Serum human BCMA levels also correlated with tumor growth, IgG levels and response to treatment in mice bearing another human MM xenograft, LAGλ-1. Untreated mice (n=4) had large tumor volumes and high serum IgG and BCMA levels. […] Human BCMA was not detected in the serum of non-tumor bearing SCID mice (data not shown).
For orientation: In xenograft studies the graft and the host belong to different species.

With `N[C@@H](Cc1ccc(N(CCCl)CCCl)cc1)C(=O)O` [melphalan, Melphalan], the tumor volumes result (P<0.0001) is given as “smaller; also recorded: small tumor volumes”. Further, the “serum IgG levels” value (P=0.0033) is “smaller; also recorded: significantly reduced”. Besides, the “serum human BCMA levels” value (P=0.0055) was “smaller; also recorded: significantly reduced”.
